According to patent publication US8828442B2, “Pharmaceutical solid dispersions” (Bend Research, Inc., priority 1999, dated 2014):

Assay: In vitro dissolution test in Model Fasted Duodenal (MFD) solution, before storage
Type: physicochemical
Settings: before aging; for AUC90 fresh: AUC from 0 to 90 minutes, MFD solution; for MDC fresh: maximum drug concentration, MFD solution pH 6.5, 37° C.
Excerpt: The concentration of dissolved drug is typically measured as a function of time by sampling the drug and plotting concentration vs. time so that the MDC can be ascertained. To avoid drug particulates which would give an erroneous determination, the test solution is either filtered or centrifuged. “Dissolved drug” is typically taken as that material that either passes a 0.45 μm syringe filter or, alternatively, the material that remains in the supernatant following centrifugation. Filtration can be conducted using a 13 mm, 0.45 μm polyvinylidine difluoride syringe filter sold by Scientific Resources under the trademark TITAN®. Centrifugation is typically carried out in a polypropylene microcentrifuge tube by centrifuging at 13,000 G for 60 seconds. Other similar filtration or centrifugation methods can be employed and useful results obtained. For example, using other types of microfilters may yield values somewhat higher or lower (±10-40%) than that obtained with the filter specified above but will still allow identification of preferred dispersions. It is recognized that this definition of “dissolved drug” encompasses not only monomeric solvated drug molecules but also a wide range of species such as polymer/drug assemblies that have submicron dimensions such as drug aggregates, aggregates of mixtures of polymer and drug, micelles, polymeric micelles, colloidal particles or nanocrystals, polymer/drug complexes, and other such drug-containing species that are present in the filtrate or supernatant in the specified dissolution test.
Dissolution performance of the material from Example 1, before exposure to increased temperature and humidity, was measured as follows. In a 37° C. controlled temperature box, 3.0 mg of the material of Example 1 was inserted into a polypropylene microcentrifuge tube (Sorenson Bioscience Inc.). The theoretical MDC in solution (i.e., if all drug dissolved) was 490 μg/ml [(3.0 mg×1000 μg/mg)×(0.33 g drug/g dispersion)×0.90 salt factor×0.98 drug assay/1.8 ml=490 μg/ml]. […] The tube was closed and a timer was started. […] Each sample was centrifuged, sampled and resuspended as described, then diluted with 250 μL HPLC grade methanol (Burdick & Jackson) and the concentration of drug was determined by HPLC. Samples were taken after 4, 10, 20, 40, and 90 minutes, analyzed, and drug concentrations for each time point were calculated. […]
In addition, the AUC90 value was calculated for Example 1. […] AUC between two individual time points within the curve was determined as follows. […] AUC90 is determined by calculating the sum of these areas defined by the drug concentrations observed at t1 and t2 equal to: 0 and 4 minutes, 4 and 10 minutes, 10 and 20 minutes, 20 and 40 minutes, and 40 and 90 minutes.

Row | AUC90 fresh [ng·h/mL] | MDC fresh [µg/mL] | SMILES
1 | 165000 | 135 | CCC(CC)Nc1cc(C)nc(Oc2c(C)cc(C)cc2C)c1C.Cl [Comparative Example C9, [3,6-Dimethyl-2-(2,4,6-trimethyl-phenoxy)-pyridin-4-yl]-(1-ethyl-propyl)-amine hydrogen chloride]
2 | 23300 | 22 | CCC(CC)Nc1cc(C)nc(Oc2c(C)cc(C)cc2C)c1C [Comparative Example C10, [3,6-Dimethyl-2-(2,4,6-trimethyl-phenoxy)-pyridin-4-yl]-(1-ethyl-propyl)-amine]
